Experimental data as given in PubChem BioAssay AID1645864 (Buhrlage Lab, Dana-Farber Cancer Institute and Novartis …, 2021).
Activity calls are given as the source filed them.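 The calls were made as follows: active = maximal inhibition of USP17 at or above 30% in the confirmation dose-response, a value not among the printed readouts; inactive = the rest.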

target: Ubiquitin carboxyl-terminal hydrolase 17-like protein 5 (Homo sapiens) (UniProt A8MUK1); experiment: ubiquitin-specific protease 17 inhibitors, concentration series, biochemical, verification of primary actives (AID 1645864); conditions: purified USP17, ubiquitin-rhodamine cleavage fluorescence, 3 h
Sequence (A8MUK1 whole entry, looked up): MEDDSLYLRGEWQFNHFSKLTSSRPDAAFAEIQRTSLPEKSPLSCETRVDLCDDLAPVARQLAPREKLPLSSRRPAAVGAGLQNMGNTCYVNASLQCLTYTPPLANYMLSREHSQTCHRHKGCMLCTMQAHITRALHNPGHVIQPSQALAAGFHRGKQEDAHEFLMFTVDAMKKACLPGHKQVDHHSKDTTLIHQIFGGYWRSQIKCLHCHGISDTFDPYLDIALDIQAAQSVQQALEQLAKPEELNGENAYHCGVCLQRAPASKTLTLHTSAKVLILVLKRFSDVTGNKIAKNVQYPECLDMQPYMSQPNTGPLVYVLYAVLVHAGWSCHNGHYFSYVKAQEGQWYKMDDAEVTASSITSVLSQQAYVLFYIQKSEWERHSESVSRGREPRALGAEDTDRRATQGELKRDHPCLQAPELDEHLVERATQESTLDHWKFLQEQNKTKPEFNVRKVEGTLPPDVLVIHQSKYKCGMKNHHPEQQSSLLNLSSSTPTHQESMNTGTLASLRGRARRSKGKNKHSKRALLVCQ

Compound	IC50
COc1ccc(OC)c(NC(=O)CS(=O)(=O)c2cn(CC(=O)N3CCC(C)CC3)c3ccccc23)c1	27.2 µM
CCOc1ccc(NC(=O)Cn2c(=O)n(CCCCCC(=O)NCc3ccc(F)cc3)c(=O)c3sccc32)cc1	2.16 µM
COc1cc(OC)c2c(c1)C(=O)C1=C(COC(C)(O)C1)C2=O (stereo not drawn)	3.44 µM
CCC/C=C\C#CC/C=C\CCCCCCCC(=O)O	2.37 µM
CCC1=C(c2ccc(C)cc2)S(=O)(=O)NC1=NCC(=O)NC(C)c1ccccc1 (stereo not drawn)	25.2 µM
CCCc1nc2sc3c(NCCc4ccc(OC)c(OC)c4)ncnc3c2c2c1CCC2	> 50 µM (inactive)
Cc1cc(O)c(=O)cc2c1C[C@H]1CC(C)(C)/C=C/C[C@@]3(C)Oc4cc(=O)c(O)cc(C)c4C[C@@H]3C[C@H](O)[C@]1(C)O2	> 50 µM (inactive)
Nc1ncnc(SCc2ccc(Cl)cc2)n1	27.1 µM
CN(C)c1cc(-n2cnc(C(=O)NCc3ccccc3Cl)c2)ncn1	41.3 µM
O=C(Nc1ccccc1)c1cn(-c2cc(N3CCCC3)ncn2)cn1	> 50 µM (inactive)
COc1cc(NC(=O)Cn2nc(-c3ccc(F)cc3)ccc2=O)ccc1-n1cnnn1	1.9 µM
N#Cc1cccc(NC(=O)Cn2cccc(-c3nc(-c4ccccc4)no3)c2=O)c1	> 50 µM (inactive)
O=C(CSc1nc2ccncc2[nH]1)Nc1ccc(Br)cc1F	37.9 µM
CCN1C(SCc2ccccc2F)=NS(=O)(=O)c2ccccc21	> 50 µM (inactive)
COc1ccc(S(=O)(=O)N(C)Cc2cccs2)cc1OC	> 50 µM (inactive)
CCCOc1ccc(C(=O)Nc2ccc(S(=O)(=O)Nc3cc(C)nc(C)n3)cc2)cc1	> 50 µM (inactive)
Cc1nc(SCC(=O)Nc2cc(Cl)ccc2C)c2oc3ccccc3c2n1	1.67 µM
Cc1ccc(-c2cn(CC(=O)N3CCN(c4ccccn4)CC3)c(=O)o2)cc1	13 µM
O=C(CC(C(=O)Nc1ccc2c(c1)OCO2)C(=O)c1ccccc1)Nc1ccc(Cl)cc1F (stereo not drawn)	11.4 µM
CCOC(=O)[C@@H]1[C@@H](c2ccccc2)CN2CCN(C(=O)c3cnccn3)C[C@H]12	> 50 µM (inactive)
O=C(Nc1ccc(-c2cn3ccsc3n2)cc1)c1ccc(Cl)c([N+](=O)[O-])c1	1.17 µM
C/C=C(\Cl)C1=CC(=O)[C@]23C[C@H]2[C@@]2(C)CO[C@@]1(O)[C@@]3(O)O2	28.2 µM
Cc1ccc(Nc2nc(C(=O)NCc3ccc4c(c3)OCO4)cc3occc23)cc1Cl	28.1 µM
Cc1cc(N2CCOCC2)nc2ccc(NC(=O)CCC(=O)Nc3ccc(F)cc3)cc12	24.2 µM

Compound	IC50
CC(C)CCCCCCCCCCC(=O)N(C)[C@H](CO)C(=O)N[C@H](C)C(=O)NCC(=O)N(C)C1C(=O)N[C@@H](C)C(=O)NC(C(=O)O)Cc2ccc(O)c(c2)-c2cc1ccc2O (stereo partly drawn)	> 50 µM (inactive)
O=C(NC1CC1)c1ccnn1-c1ccc2ccc(-c3ccncc3)cn12	> 50 µM (inactive)
C/C1=C/CC(O)/C=C/C(C)C(O)C(C)/C=C(\C)C(=O)c2c(O)c(C)cc3c2C(=O)C(Cl)=C(NC(=O)\C=C/C=C/C=C\C(C)C(O)CC1=O)C3=O (stereo not drawn)	20.2 µM
COc1ccc(-c2cc3c(=O)n(CC(=O)Nc4ccccc4F)ccn3n2)cc1OC	3.97 µM
COc1ccc(OC)c(C2CC(=O)Nc3n[nH]c(-c4ccccc4)c32)c1 (stereo not drawn)	24.6 µM
Cc1ccc(C(=O)Nc2ccc3c(c2)C(=O)N(C)c2ccccc2O3)cc1C	> 50 µM (inactive)
COc1cccc(NC(=O)c2ccc3noc(-c4ccc(Cl)cc4)c3c2)c1	37.4 µM
CC1CCN(c2nc(F)c3c(c2F)S(=O)(=O)CCN3Cc2cccnc2)CC1	> 50 µM (inactive)
CN1CCC(N(C)S(=O)(=O)c2ccc(NC(=O)c3cccc(OCc4ccccc4)c3)cc2)CC1	> 50 µM (inactive)
CCOc1ccc(CCNC(=O)CCC(=O)Nc2ccc3nc(N4CCN(C)CC4)cc(C)c3c2)cc1OCC	> 50 µM (inactive)
COc1cc(OC)cc(-c2nc(-c3cn(-c4cccc(F)c4)nn3)no2)c1	0.13 µM
O=C(COC(=O)c1ccc(NS(=O)(=O)c2ccc3c(c2)OCCO3)cc1)NCc1ccc(Cl)cc1	> 50 µM (inactive)
CC1CCN(S(=O)(=O)c2ccc(C(=O)Nc3ccc(S(N)(=O)=O)cc3)cc2)CC1	38.3 µM
COc1cccc(CCNC(=O)CCn2c(=O)c(C)nc3cc(C)c(C)cc32)c1	> 50 µM (inactive)
Cc1ccn(-c2ccc(NC(=O)c3ccccc3Sc3ccccc3C#N)cc2)n1	44.7 µM
CCn1c(SCc2cccc(C)c2)nnc1-c1cnccn1	> 50 µM (inactive)
O=C(Nc1ccc(F)cc1F)c1csc(-c2ccccc2)n1	39.2 µM
COc1ccc(NC(=O)CC(=O)c2ccc([N+](=O)[O-])cc2)cc1S(=O)(=O)Nc1ccc(Cl)cc1	24.5 µM
COc1cccc(N2CCN(c3ccc4nnc(CCC(=O)N5CCc6ccccc6C5)n4n3)CC2)c1	28.2 µM
FC(F)(F)c1cccc(Nc2nnc(-c3cccnc3)s2)c1	5.64 µM
COc1ccc(N2C(=O)[C@@H]3[C@H]4c5ccccc5C=CN4C(C(=O)Nc4ccc5c(c4)OCO5)[C@@H]3C2=O)cc1 (stereo partly drawn)	> 50 µM (inactive)
N#Cc1ccccc1Cn1c(=O)n(CCCCC(=O)NCc2ccco2)c(=O)c2ccccc21	46.3 µM
CC(=O)Nc1ccc(S(=O)(=O)Nc2ccc(Nc3ccc(-n4cccn4)nn3)cc2)cc1	24.2 µM
CC(C)Cc1cc(-c2nnc3sc(-c4ccco4)nn23)n[nH]1	> 50 µM (inactive)
